Assays:
[1] = system: RWPE-1 (human prostate epithelial cells); assay: CCK-8 cytotoxicity, RWPE-1 normal cells; assay type: cell-based
Source text: High cytotoxicity is one of the most limiting factors in chemotherapeutics.
(§1) A549 (non-small-cell-lung cancer cell line), Caski (human epithelial cervical cancer cell line), HepG2 (human liver carcinoma cell line), MCF-7 (human breast carcinoma cell line), C42B (human prostate cancer line C42B), L-02 (human normal hepatocytes), RWPE-1 (human prostate epithelial cells) and MCF-10A (human normal mammary epithelial cells) were obtained from National Collection of Authenticated Cell Cultures (Shanghai, China). […]
(§2) After 24 h, the medium containing different concentrations of tested compounds were added for another 48 h. […] The optical density was recorded with a microplate reader at 570 nm (Thermo Scientific, Varioskan LUX). All the experiments were repeated independently at least three times and the IC50 values were calculated […]
The fluorescence intensity enhancement (emission wavelength is 410 nm, excitation wavelength is 340 nm) was recorded every 60 s for 60 min in a multifunction microplate reader (Molecular Devices, Flex Station 3). […]

[2] = system: A549/CDDP (A549 cell line resistant to cisplatin); assay: CCK-8 cytotoxicity, A549/CDDP; assay type: cell-based; conditions: Homo sapiens, 48 h, CCK-8, cisplatin-resistant, read-out: IC50, Mean ± SE, A549/CDDP
Procedure: (§3) Besides the high cytotoxicity, drug resistance is the other limiting factor of chemotherapeutics. In this study, the cytotoxicities of compound 14b towards five kinds of drug-resistant cancer cell lines were also evaluated. Except three kinds of cell lines that are resistant to three drugs commonly used in clinical practice, two kinds of cell lines that are resistant to MTAs were also evaluated.
as §1, §2

[3] = system: HCT-8/VCR (HCT-8 cell line resistant to vincristine); assay: CCK-8 cytotoxicity, HCT-8/VCR; assay type: cell-based; conditions: Homo sapiens, 48 h, CCK-8, vincristine-resistant, read-out: IC50, Mean ± SE, HCT-8/VCR
Procedure: as §3, §1, §2

[4] = molecular target: tubulin (colchicine binding site) (Sus scrofa, UniProt P02554); assay: colchicine competitive inhibition (binding) assay
Procedure: Tubulin–microtubule homeostasis is crucial for cell mitosis.
Figure 2 Effect of compound 14b on tubulin. […] The experiments were performed at least three times, and representative images are shown. Scale bars are 10 μm. […] The backbone of tubulin is shown in ribbon representation (α-tubulin, yellow; β-tubulin, green). […] The data were shown as mean ± SE (standard error) of at least three independent experiments.

## COc1ccc(C(=O)c2ccc3c(ccn3C)c2)c2c1C=CC(C)(C)O2 [compound 14b, (5-methoxy-2,2-dimethyl-2H-chromen-8-yl)(1-methyl-1H-indol-5-yl)methanone]
[1]; Homo sapiens, RWPE-1, 48 h, CCK-8, normal cells, read-out: IC50, Mean ± SE, RWPE-1
  IC50: 3.698 ± 0.036 µM
[1]; IC50 RWPE-1 / IC50 C42B
  Selectivity Ratio: 72.51
[2]
  IC50: 0.035 ± 0.021 µM
[3]
  IC50: 0.122 ± 0.036 µM
[4]
  IC50: 1.04 ± 0.02 µM
